Tests used:
Assay in all cases: In vitro combination study with tazemetostat, cell proliferation (Cell Titer Glo)
NCI-H1573 = settings: 7 days tazemetostat pre-treatment, 6 days co-treatment with second agent
Description: (§1) Initial proliferation studies were performed to determine the IC50 of tazemetostat in each cell line. For the screen, tazemetostat was used at concentrations bracketed around the IC50 value. If 50% inhibitory concentration was not reached then tazemetostat was tested starting at 10 μM.
(§2) In order to study the effect of dual combination of tazemetostat and a second agent on cell proliferation, cells in log-linear phase growth rate were pre-treated with various concentrations of tazemetostat or DMSO for 7 days in flasks, plated in 384-well plates in the absence of compounds and co-treated on day 8 with tazemetostat or DMSO and the second agent serially diluted for additional 6 days (as depicted in FIG. 1). On day 15, plates were developed for endpoint analysis using Cell Titer Glo to measure ATP content, which was used as an indicator of cell viability. DMSO concentration was kept constant throughout the assay at 0.15% v/v.
(§3) NCI-H1573 was cultured in DMEM: F12 Medium containing the following components: 0.02 mg/ml insulin, 0.01 mg/ml transferrin, 25 nM sodium selenite, 50 nM Hydrocortisone, 1 ng/ml Epidermal Growth Factor, 0.01 mM ethanolamine, 0.01 mM phosphorylethanolamine, 100 pM triiodothyronine, 0.5% (w/v) bovine serum albumin, 0.5 mM sodium pyruvate, 4.5 mM L-glutamine and 1% v/v Pen/Strep.

NCI-H2122 = settings: 7 days tazemetostat pre-treatment, 6 days co-treatment with second agent
Description: as §1, §2
All cell lines were obtained from American Type Culture Collection (ATCC; Rockville, Md.). […] A427, Calu-3, Calu-6 cell lines were cultured in EMEM+10% Fetal bovine serum (FBS)+1% v/v Penicillin/Streptomycin (P/S).

NCI-H1993 = settings: 7 days tazemetostat pre-treatment, 6 days co-treatment with second agent
Description: as §1, §2

NCI-H23 = settings: 7 days tazemetostat pre-treatment, 6 days co-treatment with second agent
NCI-H460 = settings: 7 days tazemetostat pre-treatment, 6 days co-treatment with second agent
Calu-3 = settings: 7 days tazemetostat pre-treatment, 6 days co-treatment with second agent
Description: as §1, §2, §3

A427 = settings: A427; 7 days tazemetostat pre-treatment, 6 days co-treatment with second agent
NCI-H522 = settings: 7 days tazemetostat pre-treatment, 6 days co-treatment with second agent
Description: as §1, §2

NCI-H1299 = settings: 7 days tazemetostat pre-treatment, 6 days co-treatment with second agent
Description: as §1, §2

NCI-H1793 = settings: 7 days tazemetostat pre-treatment, 6 days co-treatment with second agent
Description: as §1, §2, §3

NCI-H838 = settings: 7 days tazemetostat pre-treatment, 6 days co-treatment with second agent
A549 = settings: 7 days tazemetostat pre-treatment, 6 days co-treatment with second agent
Description: as §1, §2

HCC827 = settings: 7 days tazemetostat pre-treatment, 6 days co-treatment with second agent
Description: as §1, §2, §3

NCI-H661 = settings: 7 days tazemetostat pre-treatment, 6 days co-treatment with second agent
NCI-H1703 = settings: 7 days tazemetostat pre-treatment, 6 days co-treatment with second agent
Description: as §1, §2

NCI-H2110 = settings: 7 days tazemetostat pre-treatment, 6 days co-treatment with second agent
Description: as §1, §2

NCI-H2030 = settings: 7 days tazemetostat pre-treatment, 6 days co-treatment with second agent
Description: as §1, §2

Calu-6 = settings: 7 days tazemetostat pre-treatment, 6 days co-treatment with second agent
Description: as §1, §2

| Structure (SMILES) | combinatorial effect with tazemetostat (Loewe volume class) (NCI-H1573) | combinatorial effect with tazemetostat (Loewe volume class) (NCI-H2122) | combinatorial effect with tazemetostat (Loewe volume class) (NCI-H1993) | combinatorial effect with tazemetostat (Loewe volume class) (NCI-H23) | combinatorial effect with tazemetostat (Loewe volume class) (NCI-H460) | combinatorial effect with tazemetostat (Loewe volume class) (Calu-3) | combinatorial effect with tazemetostat (Loewe volume class) (A427) | combinatorial effect with tazemetostat (Loewe volume class) (NCI-H522) | combinatorial effect with tazemetostat (Loewe volume class) (NCI-H1299) | combinatorial effect with tazemetostat (Loewe volume class) (NCI-H1793) | combinatorial effect with tazemetostat (Loewe volume class) (NCI-H838) | combinatorial effect with tazemetostat (Loewe volume class) (A549) | combinatorial effect with tazemetostat (Loewe volume class) (HCC827) | combinatorial effect with tazemetostat (Loewe volume class) (NCI-H661) | combinatorial effect with tazemetostat (Loewe volume class) (NCI-H1703) | combinatorial effect with tazemetostat (Loewe volume class) (NCI-H2110) | combinatorial effect with tazemetostat (Loewe volume class) (NCI-H2030) | combinatorial effect with tazemetostat (Loewe volume class) (Calu-6) |
| --- | --- | --- | --- | --- | --- | --- | --- | --- | --- | --- | --- | --- | --- | --- | --- | --- | --- | --- |
| C=CC(=O)Nc1cc(Nc2nccc(-c3cn(C)c4ccccc34)n2)c(OC)cc1N(C)CCN(C)C [AZD9291] | Add. (A value between −1 and 1 denoted “additivity”) | Anta. (volumes <−1 denoted “antagonism”) | Add. (A value between −1 and 1 denoted “additivity”) | Add. (A value between −1 and 1 denoted “additivity”) | Add. (A value between −1 and 1 denoted “additivity”) | Syn. (Loewe volumes greater than 1 denoted “synergy”) | Anta. (volumes <−1 denoted “antagonism”) | Syn. (Loewe volumes greater than 1 denoted “synergy”) | Add. (A value between −1 and 1 denoted “additivity”) | Syn. (Loewe volumes greater than 1 denoted “synergy”) | Syn. (Loewe volumes greater than 1 denoted “synergy”) | Add. (A value between −1 and 1 denoted “additivity”) | Add. (A value between −1 and 1 denoted “additivity”) | Anta. (volumes <−1 denoted “antagonism”) | Add. (A value between −1 and 1 denoted “additivity”) | Syn. (Loewe volumes greater than 1 denoted “synergy”) | Add. (A value between −1 and 1 denoted “additivity”) |  |
| CN(C)C/C=C/C(=O)Nc1cc2c(Nc3ccc(F)c(Cl)c3)ncnc2cc1O[C@H]1CCOC1 [Afatinib, afatinib] | Add. (A value between −1 and 1 denoted “additivity”) | Add. (A value between −1 and 1 denoted “additivity”) | Add. (A value between −1 and 1 denoted “additivity”) | Add. (A value between −1 and 1 denoted “additivity”) | Add. (A value between −1 and 1 denoted “additivity”) | Syn. (Loewe volumes greater than 1 denoted “synergy”) | Syn. (Loewe volumes greater than 1 denoted “synergy”) | Syn. (Loewe volumes greater than 1 denoted “synergy”) | Add. (A value between −1 and 1 denoted “additivity”) | Syn. (Loewe volumes greater than 1 denoted “synergy”) | Syn. (Loewe volumes greater than 1 denoted “synergy”) | Anta. (volumes <−1 denoted “antagonism”) |  | Add. (A value between −1 and 1 denoted “additivity”) | Add. (A value between −1 and 1 denoted “additivity”) | Syn. (Loewe volumes greater than 1 denoted “synergy”) | Add. (A value between −1 and 1 denoted “additivity”) | Add. (A value between −1 and 1 denoted “additivity”) |
| CNC(=O)Cn1cc(-c2ccc3c(c2)[C@H](F)C[C@]32NC(=O)N(CC(=O)N(Cc3ccc(F)cc3)[C@@H](C)C(F)(F)F)C2=O)cn1 [Cmpd H] | Anta. (volumes <−1 denoted “antagonism”) | Add. (A value between −1 and 1 denoted “additivity”) | Syn. (Loewe volumes greater than 1 denoted “synergy”) | Anta. (volumes <−1 denoted “antagonism”) | Syn. (Loewe volumes greater than 1 denoted “synergy”) | Syn. (Loewe volumes greater than 1 denoted “synergy”) | Syn. (Loewe volumes greater than 1 denoted “synergy”) |  |  | Syn. (Loewe volumes greater than 1 denoted “synergy”) | Add. (A value between −1 and 1 denoted “additivity”) |  | Add. (A value between −1 and 1 denoted “additivity”) | Anta. (volumes <−1 denoted “antagonism”) |  | Add. (A value between −1 and 1 denoted “additivity”) |  | Add. (A value between −1 and 1 denoted “additivity”) |
| C#Cc1cccc(Nc2ncnc3cc(OCCOC)c(OCCOC)cc23)c1 [Erlotinib, erlotinib] |  |  |  |  |  |  |  |  |  |  |  |  | Syn. (Loewe volumes greater than 1 denoted “synergy”) |  |  |  |  |  |
| C[C@]12C=CC(=O)C=C1CC[C@@H]1[C@@H]2[C@@H](O)C[C@@]2(C)[C@H]1CC[C@]2(O)C(=O)CO [Prednisolone, prednisolone] | Syn. (Loewe volumes greater than 1 denoted “synergy”) | Anta. (volumes <−1 denoted “antagonism”) | No eff. | No eff. | Add. (A value between −1 and 1 denoted “additivity”) | No eff. | Add. (A value between −1 and 1 denoted “additivity”) | No eff. |  | Syn. (Loewe volumes greater than 1 denoted “synergy”) | No eff. | Add. (A value between −1 and 1 denoted “additivity”) | Anta. (volumes <−1 denoted “antagonism”) | No eff. | No eff. | No eff. | No eff. | Syn. (Loewe volumes greater than 1 denoted “synergy”) |
| C[C@]1(c2nc3c(C(N)=O)cccc3[nH]2)CCCN1 [Veliparib, veliparib] | Syn. (Loewe volumes greater than 1 denoted “synergy”) | Anta. (volumes <−1 denoted “antagonism”) | No eff. | No eff. | Add. (A value between −1 and 1 denoted “additivity”) | No eff. | Syn. (Loewe volumes greater than 1 denoted “synergy”) | No eff. |  | No eff. | No eff. | No eff. | Syn. (Loewe volumes greater than 1 denoted “synergy”) | No eff. | No eff. | No eff. | No eff. | No eff. |
| CCCS(=O)(=O)Nc1ccc(F)c(C(=O)c2c[nH]c3ncc(-c4ccc(Cl)cc4)cc23)c1F [Vemurafenib, vemurafenib] |  |  |  |  |  |  |  |  |  |  |  |  | No eff. |  |  |  |  |  |

Reference: patent publication US11452727B2, “Combination therapy for treating cancer” (Epizyme, Inc., priority 2017, dated 2022)
